Among the data in US12083124B2 (Incyte Corporation, priority 2019, dated 2024) are IC50 values, retold here.

Test [1] has as its target wild-type un-phosphorylated FGFR4 (Homo sapiens, UniProt P22455). Description: FGFR Enzymatic Assay (FRET peptide phosphorylation), FGFR4.
Test [2] has as its target wild-type un-phosphorylated FGFR3 (Homo sapiens, UniProt P22607). Description: FGFR Enzymatic Assay (FRET peptide phosphorylation), FGFR3.
The target in test [3] is wild-type un-phosphorylated FGFR1 (Homo sapiens, UniProt P11362). Description: FGFR Enzymatic Assay (FRET peptide phosphorylation), FGFR1. Conditions: pre-incubated for 4 hours.
Experimental: (§1) The inhibitor potency of the exemplified compounds was determined in an enzyme discontinuous assay that measures peptide phosphorylation using FRET measurements to detect product formation. Inhibitors were serially diluted in DMSO and a volume of 0.2 μL was transferred to the wells of a 384-well plate. […] Appropriate controls (enzyme blank and enzyme with no inhibitor) were included on the plate. […] The 10 μL/well reaction concentration of the peptide substrate was 500 nM whereas the ATP concentration was maintained near or below the ATP Km. The ATP Km values were pre-determined in a separate series of experiments. The reaction plate was incubated at 25° C. for 1 hr and the reactions were ended with the addition of 5 μL/well of quench solution (50 mM Tris, 150 mM NaCl, 0.5 mg/mL BSA, pH 7.8; 45 mM EDTA, 600 nM staurosporin, with Perkin Elmer Lance Reagents at 3.75 nM Eu-antibody PY20 and 180 nM APC-Streptavidin). The plate was allowed to equilibrate for ˜10 minutes at ambient temperature before scanning on a PheraStar plate reader (BMG Labtech) instrument.
(§2) Either GraphPad prism or XLfit was used to analyze the data. The IC50 values were derived by fitting the data to a four parameter logistic equation producing a sigmoidal dose-response curve with a variable Hill coefficient. Prism equation: Y=Bottom+(Top-Bottom)/(1+10^((Log IC50-X)*Hill slope)); XLfit equation: Y=(A+((B−A)/(1+((X/C)^D)))) where X is the logarithm of inhibitor concentration and Y is the response.
(§3) GraphPad prism3 was used to analyze the data. The IC50 values were derived by fitting the data to the equation for a sigmoidal dose-response with a variable slope. Y=Bottom+(Top-Bottom)/(1+10^((Log IC50-X)*Hill Slope)) where X is the logarithm of concentration and Y is the response.
(§4) The data in Table 1 was measured in wild-type un-phosphorylated FGFR1, FGFR2, FGFR3, and FGFR4 proteins.
For test [4], the target named is wild-type un-phosphorylated FGFR2 (Homo sapiens, UniProt P21802). Description: FGFR Enzymatic Assay (FRET peptide phosphorylation), FGFR2.
Experimental: as §1, §2, §3, §4
The mark [5] stands for this setting: read-out: FGFR4, wild-type un-phosphorylated FGFR4, pre-incubated for 4 hours.
[6] abbreviates: read-out: FGFR1, wild-type un-phosphorylated FGFR1.
The mark [7] stands for this setting: FGFR1, wild-type un-phosphorylated FGFR1.

Like-named read-outs stand apart in the source and are kept apart here.

Chain of wild-type un-phosphorylated FGFR3 (P22607 23-806): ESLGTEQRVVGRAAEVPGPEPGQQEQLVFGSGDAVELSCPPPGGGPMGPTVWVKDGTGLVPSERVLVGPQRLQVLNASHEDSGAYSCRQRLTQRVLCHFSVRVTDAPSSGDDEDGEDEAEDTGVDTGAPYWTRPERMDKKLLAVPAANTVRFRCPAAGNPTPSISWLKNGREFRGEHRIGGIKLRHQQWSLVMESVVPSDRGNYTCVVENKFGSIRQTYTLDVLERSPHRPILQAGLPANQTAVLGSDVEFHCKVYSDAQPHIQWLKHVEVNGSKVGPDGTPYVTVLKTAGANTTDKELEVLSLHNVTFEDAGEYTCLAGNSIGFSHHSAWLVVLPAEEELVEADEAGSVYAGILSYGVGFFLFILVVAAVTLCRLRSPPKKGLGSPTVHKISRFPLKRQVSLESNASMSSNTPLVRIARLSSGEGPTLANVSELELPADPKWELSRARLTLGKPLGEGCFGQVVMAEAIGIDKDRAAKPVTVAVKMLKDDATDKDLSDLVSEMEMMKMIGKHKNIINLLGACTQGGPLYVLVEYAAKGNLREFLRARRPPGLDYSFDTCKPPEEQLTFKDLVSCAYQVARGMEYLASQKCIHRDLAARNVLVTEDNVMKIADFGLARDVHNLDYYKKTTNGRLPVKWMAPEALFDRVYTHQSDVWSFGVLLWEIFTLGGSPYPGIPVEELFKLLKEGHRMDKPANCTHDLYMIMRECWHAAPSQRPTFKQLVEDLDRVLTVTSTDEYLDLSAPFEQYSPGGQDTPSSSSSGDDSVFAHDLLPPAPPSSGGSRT
Chain of wild-type un-phosphorylated FGFR1 (P11362 22-822): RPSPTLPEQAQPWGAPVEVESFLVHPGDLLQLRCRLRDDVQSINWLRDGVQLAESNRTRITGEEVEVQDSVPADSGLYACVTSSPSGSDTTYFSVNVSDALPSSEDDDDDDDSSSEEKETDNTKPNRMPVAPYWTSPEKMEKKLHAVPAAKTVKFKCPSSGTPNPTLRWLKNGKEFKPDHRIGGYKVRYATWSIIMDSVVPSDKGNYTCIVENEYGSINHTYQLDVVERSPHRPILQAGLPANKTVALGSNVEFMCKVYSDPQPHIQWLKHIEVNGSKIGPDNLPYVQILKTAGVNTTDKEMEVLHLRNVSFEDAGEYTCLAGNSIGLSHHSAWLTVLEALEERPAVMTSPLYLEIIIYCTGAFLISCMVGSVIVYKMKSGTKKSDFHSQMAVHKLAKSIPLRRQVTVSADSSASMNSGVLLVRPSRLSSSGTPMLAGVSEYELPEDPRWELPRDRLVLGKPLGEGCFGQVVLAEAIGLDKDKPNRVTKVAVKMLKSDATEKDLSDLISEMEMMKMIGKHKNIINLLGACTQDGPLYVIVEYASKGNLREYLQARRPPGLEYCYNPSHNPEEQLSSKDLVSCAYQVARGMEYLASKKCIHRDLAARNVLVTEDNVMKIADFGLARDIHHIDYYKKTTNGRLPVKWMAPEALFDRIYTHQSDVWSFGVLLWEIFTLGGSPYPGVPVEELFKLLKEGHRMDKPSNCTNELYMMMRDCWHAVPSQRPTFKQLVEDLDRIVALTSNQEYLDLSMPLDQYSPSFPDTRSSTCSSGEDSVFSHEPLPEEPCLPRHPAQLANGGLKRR
Chain of wild-type un-phosphorylated FGFR4 (P22455 22-802): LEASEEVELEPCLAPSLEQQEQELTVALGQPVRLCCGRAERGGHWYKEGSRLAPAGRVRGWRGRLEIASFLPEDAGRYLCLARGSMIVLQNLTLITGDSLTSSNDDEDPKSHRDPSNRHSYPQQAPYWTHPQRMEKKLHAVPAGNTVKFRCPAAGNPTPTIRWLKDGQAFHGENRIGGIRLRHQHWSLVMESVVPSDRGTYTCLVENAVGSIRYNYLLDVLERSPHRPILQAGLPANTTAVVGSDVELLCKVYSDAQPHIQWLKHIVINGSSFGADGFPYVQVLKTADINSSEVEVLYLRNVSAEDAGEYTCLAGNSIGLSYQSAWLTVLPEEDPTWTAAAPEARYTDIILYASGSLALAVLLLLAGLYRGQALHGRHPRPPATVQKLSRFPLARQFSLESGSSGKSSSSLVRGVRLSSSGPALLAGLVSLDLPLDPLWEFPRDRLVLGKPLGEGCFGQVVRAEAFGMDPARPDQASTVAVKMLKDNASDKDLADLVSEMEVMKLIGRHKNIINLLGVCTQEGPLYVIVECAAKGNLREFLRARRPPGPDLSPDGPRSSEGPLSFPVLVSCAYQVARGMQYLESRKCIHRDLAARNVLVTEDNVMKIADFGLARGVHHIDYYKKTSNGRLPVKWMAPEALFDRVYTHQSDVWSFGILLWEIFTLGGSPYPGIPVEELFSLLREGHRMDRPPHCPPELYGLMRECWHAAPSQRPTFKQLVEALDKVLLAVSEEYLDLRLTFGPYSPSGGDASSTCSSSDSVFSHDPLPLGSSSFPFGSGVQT
Chain of wild-type un-phosphorylated FGFR2 (P21802 22-821): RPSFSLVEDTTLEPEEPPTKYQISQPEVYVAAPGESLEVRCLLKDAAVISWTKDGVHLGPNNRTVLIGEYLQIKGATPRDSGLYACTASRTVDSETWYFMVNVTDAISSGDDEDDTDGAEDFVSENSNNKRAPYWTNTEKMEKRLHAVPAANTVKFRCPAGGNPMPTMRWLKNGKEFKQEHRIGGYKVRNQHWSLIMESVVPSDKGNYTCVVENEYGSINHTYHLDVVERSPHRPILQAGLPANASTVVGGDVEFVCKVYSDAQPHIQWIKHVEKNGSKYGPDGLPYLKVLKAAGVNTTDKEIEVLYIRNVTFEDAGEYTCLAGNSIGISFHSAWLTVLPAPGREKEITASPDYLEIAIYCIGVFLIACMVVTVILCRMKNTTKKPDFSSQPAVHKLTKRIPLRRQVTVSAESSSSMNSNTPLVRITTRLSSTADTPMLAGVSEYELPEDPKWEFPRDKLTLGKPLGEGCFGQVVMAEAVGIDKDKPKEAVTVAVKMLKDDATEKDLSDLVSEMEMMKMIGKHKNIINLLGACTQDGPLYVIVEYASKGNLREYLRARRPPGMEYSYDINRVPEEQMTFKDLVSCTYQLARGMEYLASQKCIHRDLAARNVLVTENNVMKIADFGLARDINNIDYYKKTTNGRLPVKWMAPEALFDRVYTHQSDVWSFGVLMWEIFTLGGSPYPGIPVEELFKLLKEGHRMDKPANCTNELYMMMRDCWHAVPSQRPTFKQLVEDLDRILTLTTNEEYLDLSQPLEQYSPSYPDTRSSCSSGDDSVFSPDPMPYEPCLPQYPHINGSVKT

Take `COc1cc2[nH]nc(-c3ccc(N4CCN(C)CC4)nc3)c2nc1-c1cccc2c1CCC2C#N` (stereo not drawn) [Example 110, 4-(6-Methoxy-3-(6-(4-methylpiperazin-1-yl)pyridin-3-yl)-1H-pyrazolo[4,3-b]pyridin-5-yl)-2,3-dihydro-1H-indene-1-carbonitrile]: the IC50 in test [1] (setting [5]) was 6 to 40 nM; in test [2] it was below 6 nM; in test [3] (setting [6]) it was 6 to 40 nM; in test [4], below 6 nM.

For the compound `COc1cc2[nH]nc(-c3cnn(C4CC(C#N)C4)c3)c2nc1-c1cccc2c1CCC2C#N` (stereo not drawn) [Example 111, 4-(3-(1-(3-Cyanocyclobutyl)-1H-pyrazol-4-yl)-6-methoxy-1H-pyrazolo[4,3-b]pyridin-5-yl)-2,3-dihydro-1H-indene-1-carbonitrile], the IC50 in test [1] was 40 to 100 nM; in test [2], below 6 nM; in test [3] (setting [7]), below 6 nM; in test [4], below 6 nM.

Consider `COc1cc2[nH]nc(-c3cnn(C4CCN(C(C)=O)CC4)c3)c2nc1-c1cccc2c1CCC2C#N` (stereo not drawn) [Example 112, 4-(3-(1-(1-Acetylpiperidin-4-yl)-1H-pyrazol-4-yl)-6-methoxy-1H-pyrazolo[4,3-b]pyridin-5-yl)-2,3-dihydro-1H-indene-1-carbonitrile], for which the IC50 in test [1] is 40 to 100 nM; in test [2], below 6 nM; in test [3] (setting [7]), 40 to 100 nM; in test [4] it was below 6 nM.

For the compound `COc1cc2[nH]nc(-c3ccc(C4CCC(O)CC4)nc3)c2nc1-c1cccc2c1CCC2C#N` (stereo not drawn) [Example 113, 4-(3-(6-(4-Hydroxycyclohexyl)pyridin-3-yl)-6-methoxy-1H-pyrazolo[4,3-b]pyridin-5-yl)-2,3-dihydro-1H-indene-1-carbonitrile], the IC50 in test [1] is 40 to 100 nM; in test [2], below 6 nM; in test [3] (setting [6]), 6 to 40 nM; in test [4], below 6 nM.

In the case of `COc1cc2[nH]nc(-c3ccc(N4CCN(CCO)CC4)nc3)c2nc1-c1cccc2c1CCC2C#N` (stereo not drawn) [Example 114, 4-(3-(6-(4-(2-Hydroxyethyl)piperazin-1-yl)pyridin-3-yl)-6-methoxy-1H-pyrazolo[4,3-b]pyridin-5-yl)-2,3-dihydro-1H-indene-1-carbonitrile], the IC50 in test [1] (setting [5]) was 6 to 40 nM; in test [2], below 6 nM; in test [3] (setting [6]) it was 6 to 40 nM; in test [4] it was below 6 nM.

Regarding `COc1cc2[nH]nc(-c3ccc(C4CCN(C(=O)CO)CC4)nc3)c2nc1-c1cccc2c1CCC2C#N` (stereo not drawn) [Example 115, 4-(3-(6-(1-(2-Hydroxyacetyl)piperidin-4-yl)pyridin-3-yl)-6-methoxy-1H-pyrazolo[4,3-b]pyridin-5-yl)-2,3-dihydro-1H-indene-1-carbonitrile], the IC50 in test [1] (setting [5]) was 6 to 40 nM; in test [2], below 6 nM; in test [3] (setting [6]) it was 6 to 40 nM; in test [4], below 6 nM.

On to `COc1cc2[nH]nc(-c3cnn(C4CN(C(=O)CO)C4)c3)c2nc1-c1cccc2c1CCC2` [Example 116, 1-(3-(4-(5-(2,3-Dihydro-1H-inden-4-yl)-6-methoxy-1H-pyrazolo[4,3-b]pyridin-3-yl)-1H-pyrazol-1-yl)azetidin-1-yl)-2-hydroxyethan-1-one], for which the IC50 was 40 to 100 nM in test [1], below 6 nM in test [2], 6 to 40 nM in test [3] (setting [6]) and below 6 nM in test [4].

Regarding `COc1cc2[nH]nc(-c3cnn(C4CN(C(=O)CCN(C)C)C4)c3)c2nc1-c1cccc2c1CCC2` [Example 117, 1-(3-(4-(5-(2,3-Dihydro-1H-inden-4-yl)-6-methoxy-1H-pyrazolo[4,3-b]pyridin-3-yl)-1H-pyrazol-1-yl)azetidin-1-yl)-3-(dimethylamino)propan-1-one], the IC50 is 40 to 100 nM in test [1], below 6 nM in test [2], 6 to 40 nM in test [3] (setting [6]) and below 6 nM in test [4].

For the compound `COc1cc2[nH]nc(-c3cnn(C4CN(C(=O)[C@H](C)N(C)C)C4)c3)c2nc1-c1cccc2c1CCC2` [Example 118, (S)-1-(3-(4-(5-(2,3-Dihydro-1H-inden-4-yl)-6-methoxy-1H-pyrazolo[4,3-b]pyridin-3-yl)-1H-pyrazol-1-yl)azetidin-1-yl)-2-(dimethylamino)propan-1-one], the IC50 in test [1] is 40 to 100 nM; in test [2] it was below 6 nM; in test [3] (setting [6]), 6 to 40 nM; in test [4], below 6 nM.

`COc1cc2[nH]nc(-c3cnn(C4CN(C(=O)[C@@H]5CCN5C)C4)c3)c2nc1-c1cccc2c1CCC2` [Example 119, (S)-(3-(4-(5-(2,3-Dihydro-1H-inden-4-yl)-6-methoxy-1H-pyrazolo[4,3-b]pyridin-3-yl)-1H-pyrazol-1-yl)azetidin-1-yl)(1-methylazetidin-2-yl)methanone]: the IC50 in test [1] is 40 to 100 nM; in test [2] it was below 6 nM; in test [3] (setting [6]), 6 to 40 nM; in test [4], below 6 nM.

As for `COc1cc2[nH]nc(-c3cnn(C4CN(C(=O)CN5CCN(C)CC5)C4)c3)c2nc1-c1cccc2c1CCC2` [Example 120, 1-(3-(4-(5-(2,3-Dihydro-1H-inden-4-yl)-6-methoxy-1H-pyrazolo[4,3-b]pyridin-3-yl)-1H-pyrazol-1-yl)azetidin-1-yl)-2-(4-methylpiperazin-1-yl)ethan-1-one], the IC50 in test [1] was 40 to 100 nM; in test [2], below 6 nM; in test [3] (setting [6]), 6 to 40 nM; in test [4], below 6 nM.

Consider `COc1cc2[nH]nc(-c3cnn(C4CN(C(=O)CN5CCC(O)CC5)C4)c3)c2nc1-c1cccc2c1CCC2` [Example 121, 1-(3-(4-(5-(2,3-Dihydro-1H-inden-4-yl)-6-methoxy-1H-pyrazolo[4,3-b]pyridin-3-yl)-1H-pyrazol-1-yl)azetidin-1-yl)-2-(4-hydroxypiperidin-1-yl)ethan-1-one], for which the IC50 in test [1] was 40 to 100 nM; in test [2], below 6 nM; in test [3] (setting [6]), 6 to 40 nM; in test [4], below 6 nM.

Turning to `COc1cc2[nH]nc(-c3cnn(C4CN(C(=O)[C@H]5CCN5C)C4)c3)c2nc1-c1cccc2c1CCC2` [Example 122, (R)-(3-(4-(5-(2,3-Dihydro-1H-inden-4-yl)-6-methoxy-1H-pyrazolo[4,3-b]pyridin-3-yl)-1H-pyrazol-1-yl)azetidin-1-yl)(1-methylazetidin-2-yl)methanone], the IC50 is 40 to 100 nM in test [1], below 6 nM in test [2], 6 to 40 nM in test [3] (setting [6]) and below 6 nM in test [4].

Regarding `COc1cc2[nH]nc(-c3cnn(C4CN(C(=O)[C@@H](C)O)C4)c3)c2nc1-c1cccc2c1CCC2` [Example 123, (R)-1-(3-(4-(5-(2,3-Dihydro-1H-inden-4-yl)-6-methoxy-1H-pyrazolo[4,3-b]pyridin-3-yl)-1H-pyrazol-1-yl)azetidin-1-yl)-2-hydroxypropan-1-one], the IC50 in test [1] (setting [5]) was 6 to 40 nM; in test [2], below 6 nM; in test [3] (setting [6]), 6 to 40 nM; in test [4], below 6 nM.

As for `COc1cc2[nH]nc(-c3cnn(C4CN(C(=O)[C@H](C)O)C4)c3)c2nc1-c1cccc2c1CCC2` [Example 124, (S)-1-(3-(4-(5-(2,3-Dihydro-1H-inden-4-yl)-6-methoxy-1H-pyrazolo[4,3-b]pyridin-3-yl)-1H-pyrazol-1-yl)azetidin-1-yl)-2-hydroxypropan-1-one], the IC50 in test [1] is 40 to 100 nM; in test [2] it was below 6 nM; in test [3] (setting [6]), 6 to 40 nM; in test [4], below 6 nM.
